{
  "source": "patent US11337963B2",
  "about": "“Compositions and methods of enhancing 5-hydroxytryptophan bioavailability” (Duke University, priority 2018, dated 2022)",
  "key": {"[1]": {"conditions": "animals; including kidney insufficiency and growth anomalies; cited from earlier work"}, "[2]": {"system": "aromatic amino acid decarboxylase enzyme (AAAD)", "conditions": "after oral administration (Da Prada et al, 1987); cited from earlier work"}, "[3]": {"test": "Carbidopa plasma levels in humans at therapeutic doses (literature)", "assay_type": "in vivo", "conditions": "reported human chronic studies with carbidopa and 5-HTP; extrapolated across references"}, "[4]": {"conditions": "cited from earlier work"}, "brain 5-HT": {"system": "brain 5-HT", "test": "Brain (frontal cortex) 5-HT tissue levels in mice after 14 days of treatment", "assay_type": "in vivo", "conditions": "for augmentation of the brain 5-HT tissue elevation induced by 5-HTP: carbidopa 2, 5 or 10 mg/kg/day added to 5-HTP 200 mg/kg/day, more pronounced in 5-HTHypo mice", "description": "(§1) Mice: Adult mice were used, both wildtype (WT) mice with normal 5-HT levels and ‘5-HTHypo’ mice with reduced brain 5-HT synthesis and levels (Beaulieu et al, 2008). The 5-HTHypo mice are a naturalistic model of brain 5-HT deficiency, which is known to be a pathogenic factor in several CNS disorders, e.g. depression and suicide.\n(§2) Drug treatments: Carbidopa was used as a PDI. To model oral drug delivery occurring in humans during a therapeutic scenario, 5-HTP and carbidopa was delivered via the mouse food (standard chow). This approach distributed the drug delivery over time, imparting a measure of ‘slow-release’ (aka sustained-, extended-, time-, controlled-release) delivery. 5-HTP was administered in a dose of 200 mg/kg/day. Carbidopa was administered in doses of 2, 5 or 10 mg/kg/day in addition to 5-HTP, to assess the effect of carbidopa on the outcomes of 5-HTP treatment. To assess the effect of carbidopa alone, groups of mice were also administered carbidopa 10 mg/kg/day, the highest carbidopa dose, without concomitant 5-HTP. Comparisons were made to untreated mice. Duration of all treatments was 14 days, which is considered chronic in mouse experiments.\n(§3) Sample collection: During treatments blood samples were collected to assess plasma levels of 5-HTP and carbidopa. At end of treatments mice were euthanized and brain tissues (frontal cortex) were collected.\n(§4) Quantitative analysis: Levels of plasma 5-HTP, plasma carbidopa, brain 5-HT, and brain 5-hydroxyindoleacetic acid (5-HIAA, major 5-HT metabolite) were quantified using HPLC, as described (Jacobsen et al, 2012b). The limits of detection for 5-HT and 5-HTP in plasma were 1 ng/ml and for carbidopa in plasma 2 ng/ml (FIG. 4C)."}, "[5]": {"test": "HPLC electrochemical quantification of carbidopa in mouse plasma", "assay_type": "in vivo, mice", "method": "FIG. 4A-4D. HPLC electrochemical quantification of carbidopa in plasma. FIG. 4A: 10 ng/ml standard in perchloric acid. Carbidopa peak visible at 24 min. FIG. 4B: Plasma extract from mouse not treated with carbidopa. […] Baseline undulations at 24 min is detector noise. FIG. 4C: Plasma extract from a mouse not treated with carbidopa, but the plasma spiked with carbidopa to a concentration of 2 ng/ml prior to extraction. Carbidopa peak visible at 24 min. FIG. 4D: Plasma extract from mouse treated with 10 mg/kg/day carbidopa. […] Baseline undulations at 24 min is detector noise, as indicated.\nas §2, §3, §4"}, "brain 5-HIAA": {"system": "brain 5-HIAA", "test": "Brain (frontal cortex) 5-HIAA tissue levels in mice after 14 days of treatment", "assay_type": "in vivo", "conditions": "for augmentation of the brain 5-HIAA tissue elevation induced by 5-HTP: carbidopa 2, 5 or 10 mg/kg/day added to 5-HTP 200 mg/kg/day, more pronounced in 5-HTHypo mice", "description": "as §1, §2, §3, §4"}, "[6]": {"test": "Plasma 5-HTP levels in mice given 5-HTP and/or carbidopa via food for 14 days", "assay_type": "in vivo", "conditions": "for augmentation of the 5-HTP plasma elevation induced by 5-HTP: carbidopa 2, 5 or 10 mg/kg/day added to 5-HTP 200 mg/kg/day, similar in WT and 5-HTHypo mice", "description": "as §1, §2, §3, §4"}, "[7]": {"conditions": "cited from earlier work", "remark": "listed apart in the source"}, "[8]": {"conditions": "animal studies (Shindo et al, 1977); cited from earlier work"}, "[9]": {"conditions": "steady state, therapeutic scenario"}, "[10]": {"conditions": "carbidopa 10 mg/kg/day alone, without 5-HTP, 14 days"}, "[11]": {"conditions": "5-HTP 200 mg/kg/day alone via food, 14 days, vs untreated"}},
  "note": "Like-named read-outs stand apart in the source and are kept apart here.",
  "data": [
    {"smiles": "NC(CO)C(=O)NNCc1ccc(O)c(O)c1O", "note": "(centres unmarked) [benserazide]", "values": [
      {"measurement": "toxicity of chronic PDI treatment without levodopa", "setting": "[1]", "result": "significant toxic effects"},
      {"measurement": "potency as inhibitor of AAAD in the peripheral organs relative to carbidopa", "setting": "[2]", "result": 10, "unit": "fold"}
    ]},
    {"smiles": "C[C@@](Cc1ccc(O)c(O)c1)(NN)C(=O)O", "note": "[carbidopa]", "values": [
      {"measurement": "toxicity of chronic PDI treatment without levodopa", "setting": "[1]", "result": "significant toxic effects"},
      {"measurement": "average carbidopa plasma levels", "setting": "[3]", "result": "> 25", "unit": "ng/mL"},
      {"measurement": "usual systemically active plasma levels", "setting": "[4]; Verhagen et al, 2015, Yeh et al, 1989", "result": 25, "unit": "ng/mL"},
      {"measurement": "average plasma levels of carbidopa at maintenance doses", "setting": "[4]; [9]", "result": "≥ 25", "unit": "ng/mL"},
      {"measurement": "range of average plasma levels of carbidopa at maintenance doses", "setting": "[4]; [9]", "result": "25 to 150", "unit": "ng/mL"},
      {"measurement": "effect on brain 5-HT", "setting": "brain 5-HT; [10]", "result": "no effects"},
      {"measurement": "augmentation of the brain 5-HT tissue elevation induced by 5-HTP", "setting": "brain 5-HT", "result": "manifold and dose-dependently augmented"},
      {"measurement": "augmentation of the brain 5-HT tissue elevation induced by 5-HTP", "setting": "brain 5-HT; listed as Carbidopa", "result": "dose-dependently augmented"},
      {"measurement": "plasma carbidopa levels", "setting": "[5]; carbidopa 10 mg/kg/day, the highest dose, limit of detection 2 ng/ml", "result": "< 2", "unit": "ng/mL"},
      {"measurement": "carbidopa peak in HPLC of plasma extract (FIG. 4D)", "setting": "[5]; mouse treated with 10 mg/kg/day carbidopa", "result": "No carbidopa peak visible"},
      {"measurement": "plasma exposure levels lower than usual systemically active levels", "setting": "[5]; relative to 25 ng/ml", "result": "at least 12 times"},
      {"measurement": "effect on brain 5-HIAA", "setting": "brain 5-HIAA; [10]", "result": "no effects"},
      {"measurement": "augmentation of the brain 5-HIAA tissue elevation induced by 5-HTP", "setting": "brain 5-HIAA", "result": "manifold and dose-dependently augmented"},
      {"measurement": "augmentation of the brain 5-HIAA tissue elevation induced by 5-HTP", "setting": "brain 5-HIAA; listed as Carbidopa", "result": "dose-dependently augmented"},
      {"measurement": "enhancing 5-HTP bioavailability and pharmacodynamic (brain 5-HT) effects", "setting": "[6]; 5-HTP:carbidopa ratios of 20:1 to 100:1", "result": "effective"},
      {"measurement": "effect on plasma 5-HTP", "setting": "[6]; [10]", "result": "no effects"},
      {"measurement": "augmentation of the 5-HTP plasma elevation induced by 5-HTP", "setting": "[6]", "result": "manifold and dose-dependently augmented"},
      {"measurement": "augmentation of the 5-HTP plasma elevation induced by 5-HTP", "setting": "[6]; listed as Carbidopa", "result": "dose-dependently augmented"}
    ]},
    {"smiles": "N[C@@H](Cc1c[nH]c2ccc(O)cc12)C(=O)O", "note": "[5-HTP, 5-hydroxytryptophan]", "values": [
      {"measurement": "oral bioavailability", "setting": "[7]; 5-HTP (Gijsman et al, 2002)", "result": "modest"},
      {"measurement": "T1/2 (elimination half-life)", "setting": "[7]; 5-HTP in humans, oral", "result": "~2", "unit": "h"},
      {"measurement": "TMax", "setting": "[7]; 5-HTP in humans, oral", "result": "~1", "unit": "h"},
      {"measurement": "T1/2", "setting": "[7]; immediate-release oral 5-HTP", "result": "about 2 hours"},
      {"measurement": "TMax", "setting": "[7]; immediate-release oral 5-HTP", "result": "1 to 2", "unit": "h"},
      {"measurement": "levels of brain 5-HT", "setting": "brain 5-HT; [11]", "result": "elevated"},
      {"measurement": "exogenously administered 5-HTP converted to 5-HT during transport over the intestinal wall", "setting": "[8]", "result": "more than 50%"},
      {"measurement": "levels of brain 5-HIAA", "setting": "brain 5-HIAA; [11]", "result": "elevated"},
      {"measurement": "levels of plasma 5-HTP", "setting": "[6]; 5-HTP 200 mg/kg/day alone via food, 14 days, vs untreated, WT and 5-HTHypo mice", "result": "elevated"}
    ]}
  ]
}
